pIC50: −log10 of the molar value.
Biological target: T1, Human DGAT1 (Homo sapiens, UniProt O75907)
T1 construct: made in house; host or cells: Sf9 insect cells (baculovirus); microsomes
T1 sequence (O75907 1-488): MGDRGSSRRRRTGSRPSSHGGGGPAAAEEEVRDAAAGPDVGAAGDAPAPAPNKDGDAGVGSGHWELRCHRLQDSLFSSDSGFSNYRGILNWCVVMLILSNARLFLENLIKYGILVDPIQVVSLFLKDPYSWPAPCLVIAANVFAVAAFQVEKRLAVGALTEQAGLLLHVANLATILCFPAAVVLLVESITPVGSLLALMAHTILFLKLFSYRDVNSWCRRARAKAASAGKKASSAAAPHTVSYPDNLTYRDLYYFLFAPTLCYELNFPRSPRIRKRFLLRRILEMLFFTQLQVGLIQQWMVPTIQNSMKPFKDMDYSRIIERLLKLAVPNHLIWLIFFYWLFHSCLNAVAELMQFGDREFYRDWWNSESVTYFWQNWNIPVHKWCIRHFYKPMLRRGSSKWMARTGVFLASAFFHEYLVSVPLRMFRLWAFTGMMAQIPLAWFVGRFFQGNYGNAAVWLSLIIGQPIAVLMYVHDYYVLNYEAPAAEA
Assay: hDGAT1 fluorescence (CPM) assay, inhibition of CoA product formation
Assay type: biochemical
Settings: human DGAT1 microsomes from Sf9 cells
Experimental: Human DGAT1 was expressed in Sf9 insect cells using a baculovirus expression system. Microsomes were prepared and used as enzyme for in vitro inhibition testing in either of two formats measuring production of coenzyme A or tridecanoylglycerol product, respectively. All steps were performed at 21-23° C. All data for DGAT1 inhibition by test compounds were collected under conditions where product formation was linear with reaction time.
For inhibition of CoA product formation, test compounds were prepared in 100% DMSO, diluted 100-fold into assay buffer, and 10 uL added to 96-well half-area plates (Greiner 675076). An equal volume (10 uL) of 3× enzyme in buffer was added and the components incubated for 30 minutes pre-reaction incubation to allow enzyme and test compounds to attain binding equilibrium. […] Some assays were performed with inclusion of didecanoylglycerol in the pre-reaction incubation of test compound and enzyme. DGAT reactions (30 uL) were initiated upon addition of 10 uL of 3× substrate solution. Final reaction conditions consisted of 20 mM HEPES pH 7.5, 2 mM MgCl2, 1 mM CHAPS, 50 uM didecanoylglycerol, 3 uM decanoyl-CoA, 1 ug/mL microsomal protein, and 1% DMSO. Following a 60 minute reaction incubation, reactions were stopped and CoA product derivatized with 30 uL of buffer containing 10 uM {4-[4-(4-amino-7,7-dimethyl-7H-pyrimido[4,5-b][1,4]oxazin-6-yl)phenyl]cyclohexyl}acetic acid and 50 uM 7-diethylamino-3-(4′-maleimidylphenyl)-4-methylcoumarin (CPM). Fluorescence was read using Envision reader at Ex 405 nm/Em 480 nm about 30 minutes after addition of final solution. Inhibition was normalized to controls containing DMSO or 10 uM {4-[4-(4-amino-7,7-dimethyl-7H-pyrimido[4,5-b][1,4]oxazin-6-yl)phenyl]cyclohexyl}acetic acid. IC50s were fitted using GraphPad Prism to a sigmoidal dose response.

Structure (SMILES) | pIC50
Nc1ncnc2c1C(=O)N(c1ccc3c(c1)CCC(=O)N3CC(=O)O)CCO2 [Example 3, 2-(6-{4-amino-5-oxo-5H,6H,7H,8H-pyrimido[5,4-f][1,4]oxazepin-6-yl}-2-oxo-1,2,3,4-tetrahydroquinolin-1-yl)acetic acid] | 6.43
CN1CCc2cc(N3CCOc4ncnc(N)c4C3=O)ccc2C1=O [Example 6, 6-{4-amino-5-oxo-5H,6H,7H,8H-pyrimido[5,4-f][1,4]oxazepin-6-yl}-2-methyl-1,2,3,4-tetrahydroisoquinolin-1-one] | 7.07
C=CCn1c2ccc(N3CCOc4ncnc(N)c4C3=O)cc2c(=O)n1Cc1ccccc1 [Example 10, 6-(1-Allyl-2-benzyl-3-oxo-2,3-dihydro-1H-indazol-5-yl)-4-amino-7,8-dihydropyrimido[5,4-f][1,4]oxazepin-5(6H)-one] | 7.38
CCCn1[nH]c(=O)c2cc(N3CCOc4ncnc(N)c4C3=O)ccc21 [Example 11, 4-Amino-6-(3-oxo-1-propyl-2,3-dihydro-1H-indazol-5-yl)-7,8-dihydropyrimido[5,4-f][1,4]oxazepin-5(6H)-one] | 8.20
CCCn1ccc2cc(N3CCOc4ncnc(N)c4C3=O)ccc21 [Example 12, 4-Amino-6-(1-propyl-1H-indol-5-yl)-7,8-dihydropyrimido[5,4-f][1,4]oxazepin-5(6H)-one] | 7.79
Nc1ncnc2c1C(=O)N(c1cnc3c(ccn3C3CC3)c1)CCO2 [Example 34, 4-Amino-6-(1-cyclopropyl-1H-pyrrolo[2,3-b]pyridin-5-yl)-7,8-dihydropyrimido[5,4-f][1,4]oxazepin-5(6H)-one] | 7.59
Nc1ncnc2c1C(=O)N(c1cnc3c(ccn3CCO)c1)CCO2 [Example 59, 4-amino-6-[1-(2-hydroxyethyl)-1H-pyrrolo[2,3-b]pyridin-5-yl]-5H,6H,7H,8H-pyrimido[5,4-f][1,4]oxazepin-5-one] | 7.31
Nc1ncnc2c1C(=O)N(c1cnc3c(ccn3-c3ccc(C(F)(F)F)cc3)c1)CCO2 [Example 66, 4-Amino-6-(1-(4-(trifluoromethyl)phenyl)-1H-pyrrolo[2,3-b]pyridin-5-yl)-7,8-dihydropyrimido[5,4-f][1,4]oxazepin-5(6H)-one] | 7.37
Nc1ncnc2c1C(=O)N(c1cnc3c(ccn3-c3cccc(Cl)c3)c1)CCO2 [Example 68, 4-amino-6-[1-(3-chlorophenyl)-1H-pyrrolo[2,3-b]pyridin-5-yl]-5H,6H,7H,8H-pyrimido[5,4-f][1,4]oxazepin-5-one] | 8.55
Nc1ncnc2c1C(=O)N(c1ccc3c(ccn3-c3ccccc3F)c1)CCO2 [Example 76, 4-amino-6-[1-(2-fluorophenyl)-1H-indol-5-yl]-5H,6H,7H,8H-pyrimido[5,4-f][1,4]oxazepin-5-one] | 8.60
Nc1ncnc2c1C(=O)N(c1ccc3c(ccn3-c3ccc(C(F)(F)F)cc3)c1)CCO2 [Example 78, 4-amino-6-{1-[4-(trifluoromethyl)phenyl]-1H-indol-5-yl}-5H,6H,7H,8H-pyrimido[5,4-f][1,4]oxazepin-5-one] | 8.14
Nc1ncnc2c1C(=O)N(c1ccc3c(ccn3-c3nccs3)c1)CCO2 [Example 82, 4-Amino-6-(1-(thiazol-2-yl)-1H-indol-5-yl)-7,8-dihydropyrimido[5,4-f][1,4]oxazepin-5(6H)-one] | 7.69
Nc1ncnc2c1C(=O)N(c1ccc3c(ccn3-c3ccc(C(F)(F)F)nc3)c1)CCO2 [Example 83, 4-Amino-6-(1-(6-(trifluoromethyl)pyridin-3-yl)-1H-indol-5-yl)-7,8-dihydropyrimido[5,4-f][1,4]oxazepin-5(6H)-one] | 7.40
Nc1ncnc2c1C(=O)N(c1ccc3c(ccn3-c3cnccn3)c1)CCO2 [Example 87, 4-amino-6-[1-(pyrazin-2-yl)-1H-indol-5-yl]-5H,6H,7H,8H-pyrimido[5,4-f][1,4]oxazepin-5-one] | 7.26
CC(C)c1cn(-c2ccccc2)c2ccc(N3CCOc4ncnc(N)c4C3=O)cc12 [Example 94, 4-Amino-6-(3-isopropyl-1-phenyl-1H-indol-5-yl)-7,8-dihydropyrimido[5,4-f][1,4]oxazepin-5(6H)-one] | 6.06

From patent publication US9540400B2, “Compounds as diacylglycerol acyltransferase inhibitors” (GlaxoSmithKline Intellectual Property (No. 2) Limited, priority 2011, dated 2017)
